# In patent publication US4886663A (priority 1983, dated 1989):
# Where no end group is shown, it is not given here.
# Legend:
# rat ligated ileal loops = conditions: in vivo
# [1] = tested on: hyperimmune antisera to biologic ST; type: binding, goat and rabbit
# [2] = tested on: hyperimmune antisera to synthetic ST; type: binding, goat and rabbit
# [3] = tested on: hyperimmune rabbit antiserum to biologic ST; conditions: in vivo
# [4] = tested on: goat hyperimmune antiserum to synthetic ST; conditions: in vivo
# suckling mouse = conditions: in vivo
# [5] = in vivo, po
# [6] = tested on: rabbit ligated ileal loops; conditions: in vivo
sequence,measurement,setting,value
NTFYCCELCCYPACAGCN (cysteine pairing not given here) [synthetic ST],ED50 in rat ligated ileal loops,rat ligated ileal loops,2.0 nanograms
same,secretory responses in ligated ileal loops compared with biologic ST,rat ligated ileal loops,Substantial identity of secretory responses
same,Anti-Biol.-ST: percent recognition of assayed ST by antiserum raised to biologic ST,[1],263
same,"antigenicity relative to biologic ST Ib, later preparations",[1],about 3 fold
same,Anti-Syn. ST: percent recognition of assayed ST by antiserum raised to synthetic ST,[2],100
same,antigenicity compared with biologic ST,[2],identical
same,mouse units of toxin neutralized by one milliliter of hyperimmune rabbit antiserum to biologic ST,[3],160 MU
same,mouse units of toxin neutralized by one milliliter of goat hyperimmune antiserum to synthetic ST,[4],220 MU
same,Nanograms required to provide a gut: whole body ratio of 0.083,suckling mouse,5.3 ng
same,Suckling Mouse (Percent),suckling mouse,120
same,biological activity / potency in suckling mouse assay compared with biologic (E. coli) ST,suckling mouse,substantially the same as biologic ST
same,mouse units of ST activity per microgram,suckling mouse,175 mouse units per microgram
same,reduction of ST toxicity by the cross-linking reaction to B subunit,suckling mouse,727 fold
same,secretory activity in the suckling mouse assay after dithiothreitol,suckling mouse,abolished its secretory activity
same,value for one mouse unit,suckling mouse,5.7 nanograms
same,diarrhea after p.o. administration,[5],did not cause diarrhea
same,fluid secretion in rabbit ligated ileal loops,[6],did not cause any fluid secretion
same,fluid:length ratio in rabbit ligated ileal loops,[6],1.1±0.3
